The values that follow are results of earlier work, collected in US5908764A, “Methods and compositions for increasing production of erythromycin” (Solidago AG, priority 1997, dated 1999).

In one data set the target is horse heart myoglobin (Equus caballus, UniProt P68082). To be noted: oxygen affinity; Wittenberg et al., 1985.
For data set [1], the target named is Vitreoscilla hemoglobin (VHb) (Vitreoscilla stercoraria, UniProt P04252). To be noted: koff rate for oxygen; Orii and Webster, 1986.

pKd: −log10 of the molar value.

Chain of horse heart myoglobin (P68082 whole entry): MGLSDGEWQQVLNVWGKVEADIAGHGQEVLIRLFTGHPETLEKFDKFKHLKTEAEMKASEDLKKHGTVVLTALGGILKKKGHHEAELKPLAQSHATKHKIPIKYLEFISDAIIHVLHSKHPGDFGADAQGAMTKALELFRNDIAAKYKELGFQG

For `O=O` [oxygen], on horse heart myoglobin, the negative-log Kd (pKd) – broadly, the negative decadic logarithm of the Kd, by convention in mol/L – is 6.10. Further, the off-rate (koff) (commonly a measure of how fast the partners let go of each other) in data set [1] was 5600 s⁻¹.
